From US11013726B2 (Arbutus Biopharma Corporation, priority 2016, dated 2021) come the findings set out here.

The experiment has as its system HBsAg. Briefly: HBsAg assay. The format is cell-based, hepatitis B virus. Conditions: Hepatitis B virus, HepG2.2.15, 144 h, read-out: sAg EC50, μM, HepG2.2.15 cells, day 6. The protocol:
Inhibition of HBsAg was determined in HepG2.2.15 cells. Cells were maintained in culture medium containing 10% fetal calf serum, […], Glutamine, penicillin/streptomycin. Cells were seeded in 96-well collagen-coated plate at a density of 30,000 cells/well. Serially diluted compounds were added to cells next day at the final DMSO concentration of 0.5%. Cells were incubated with compounds for 2-3 days, after which medium was removed. Fresh medium containing compounds was added to cells for additional 3-4 days. At day 6 after exposure of compounds, supernatant was collected, the HBsAg immunoassay (microplate-based chemiluminescence immunoassay kits, CLIA, Autobio Diagnosics Co., Zhengzhou, China, Catalog # CL0310-2) was used to determine the level of HBsAg according to manufactory instruction. Dose-response curves were generated and the EC50 value (effective concentrations that achieved 50% inhibitory effect) were determined using XLfit software. In addition, cells were seeded at a density of 5,000 cells/well for determination of cell viability in the presence and absence of compounds by using CellTiter-Glo reagent (Promega). Tables 1-3 show EC50 values obtained by the HBsAg assay for selected compounds.

The structures appear in SMILES notation.

As a reminder, the EC50 is the concentration needed to bring the measured effect to its halfway point. For `COc1ccc2c(c1)OC[C@@H](C(C)C)n1cc(C(=O)O)c(=O)cc1-2` [Example 17, (R)-7-Isopropyl-3-methoxy-11-oxo-6,7-dihydro-11H-benzo[f]pyrido[1,2-d][1,4]oxazepine-10-carboxylic acid], the EC50 was determined as 0.88 µM.
To `COc1cc2c(cc1OC)-c1cc(=O)c(C(=O)O)cn1C(C(C)C)CC2` (centres unmarked) [Example 19, 6-Isopropyl-10,11-dimethoxy-2-oxo-2,6,7,8-tetrahydrobenzo[c]pyrido[1,2-a]azepine-3-carboxylic acid] belongs 0.027 µM.
With `COCCCOc1cc2c(nc1OC)-c1cc(=O)c(C(=O)O)cn1C(C(C)C)C2` (centres unmarked) [Example 20, 6-Isopropyl-2-methoxy-3-(3-methoxypropoxy)-10-oxo-5,10-dihydro-6H-pyrido[1,2-h][1,7]naphthyridine-9-carboxylic acid] the figure was 0.005 µM; with `COc1cc2c(nc1OC)-c1cc(=O)c(C(=O)O)cn1C(C(C)C)C2` (centres unmarked) [Example 23, 6-Isopropyl-2,3-dimethoxy-10-oxo-5,10-dihydro-6H-pyrido[1,2-h][1,7]naphthyridine-9-carboxylic acid], 0.019 µM; with `COCCCOc1cc2c(nc1OC)-c1c(F)c(=O)c(C(=O)O)cn1[C@H](C(C)C)C2` [Example 26, (S)-11-Fluoro-6-isopropyl-2-methoxy-3-(3-methoxypropoxy)-10-oxo-5,10-dihydro-6H-pyrido[1,2-h][1,7]naphthyridine-9-carboxylic acid], 0.002 µM.
Turning to `COCCCOc1cc2c(cc1Cl)-c1cc(=O)c(C(=O)O)cn1[C@H](C(C)C)CO2` [Example 27, (R)-2-Chloro-7-isopropyl-3-(3-methoxypropoxy)-11-oxo-6,7-dihydro-11H-benzo[f]pyrido[1,2-d][1,4]oxazepine-10-carboxylic acid], the EC50 came to 0.011 µM.
For `COCCCOc1cc2c(cc1Cl)-c1cc(=O)c(C(=O)O)cn1[C@@H](C(C)C)CO2` [Example 28, (S)-2-Chloro-7-isopropyl-3-(3-methoxypropoxy)-11-oxo-6,7-dihydro-11H-benzo[f]pyrido[1,2-d][1,4]oxazepine-10-carboxylic acid], the EC50 worked out at 0.46 µM.
With `COCCOc1cc2c(cc1Cl)-c1cc(=O)c(C(=O)O)cn1C(C(C)C)CO2` (centres unmarked) [Example 29, 2-Chloro-7-isopropyl-3-(2-methoxyethoxy)-11-oxo-6,7-dihydro-11H-benzo[f]pyrido[1,2-d][1,4]oxazepine-10-carboxylic acid] the figure was 0.065 µM.
For the compound `CCOC(=O)c1cn2c(cc1=O)-c1cc(Cl)c(O)cc1OCC2C(C)C` (centres unmarked) [Example 32, Ethyl 2-chloro-3-hydroxy-7-isopropyl-11-oxo-6,7-dihydro-11H-benzo[f]pyrido[1,2-d][1,4]oxazepine-10-carboxylate], the EC50 came out at 22 µM.
`COCCCOc1cc2c(cc1Cl)-c1cc(=O)c(C(=O)O)cn1C(C(C)C)CO2` (centres unmarked) [Example 33, 2-Chloro-7-isopropyl-3-(3-methoxypropoxy)-11-oxo-6,7-dihydro-11H-benzo[f]pyrido[1,2-d][1,4]oxazepine-10-carboxylic acid]: the EC50 amounted to 0.029 µM.
With `CC(C)[C@@H]1COc2cc(OCC(F)(F)F)c(Cl)cc2-c2cc(=O)c(C(=O)O)cn21` [Example 34, (R)-2-Chloro-7-isopropyl-11-oxo-3-(2,2,2-trifluoroethoxy)-6,7-dihydro-11H-benzo[f]pyrido[1,2-d][1,4]oxazepine-10-carboxylic acid], the EC50 came out at 0.086 µM.
To `CC(C)[C@@H]1COc2cc(OCC3CC3)c(Cl)cc2-c2cc(=O)c(C(=O)O)cn21` [Example 35, (R)-2-Chloro-3-(cyclopropylmethoxy)-7-isopropyl-11-oxo-6,7-dihydro-11H-benzo[f]pyrido[1,2-d][1,4]oxazepine-10-carboxylic acid] belongs 0.033 µM.
For the compound `CC(C)[C@@H]1COc2cc(OCCCO)c(Cl)cc2-c2cc(=O)c(C(=O)O)cn21` [Example 36, (R)-2-Chloro-3-(3-hydroxypropoxy)-7-isopropyl-11-oxo-6,7-dihydro-11H-benzo[f]pyrido[1,2-d][1,4]oxazepine-10-carboxylic acid], the concentration for a half-maximal effect (EC50) amounted to 0.019 µM.
Consider `CC(C)[C@@H]1COc2cc(OCC(C)(C)CO)c(Cl)cc2-c2cc(=O)c(C(=O)O)cn21` [Example 37, (R)-2-Chloro-3-(3-hydroxy-2,2-dimethylpropoxy)-7-isopropyl-11-oxo-6,7-dihydro-11H-benzo[f]pyrido[1,2-d][1,4]oxazepine-10-carboxylic acid], for which the EC50 worked out at 0.012 µM.
With `COCCCCOc1cc2c(cc1Cl)-c1cc(=O)c(C(=O)O)cn1[C@H](C(C)C)CO2` [Example 38, (R)-2-Chloro-7-isopropyl-3-(4-methoxybutoxy)-11-oxo-6,7-dihydro-11H-benzo[f]pyrido[1,2-d][1,4]oxazepine-10-carboxylic acid] the figure was 0.017 µM; with `CC(C)[C@@H]1COc2cc(OCCCCO)c(Cl)cc2-c2cc(=O)c(C(=O)O)cn21` [Example 39, (R)-2-Chloro-3-(4-hydroxybutoxy)-7-isopropyl-11-oxo-6,7-dihydro-11H-benzo[f]pyrido[1,2-d][1,4]oxazepine-10-carboxylic acid], 0.014 µM; with `CC(C)[C@@H]1COc2cc(OCCCN3CCOCC3)c(Cl)cc2-c2cc(=O)c(C(=O)O)cn21` [Example 40, (R)-2-Chloro-7-isopropyl-3-(3-morpholinopropoxy)-11-oxo-6,7-dihydro-11H-benzo[f]pyrido[1,2-d][1,4]oxazepine-10-carboxylic acid], 0.14 µM.
Take `CC(C)[C@@H]1COc2cc(OCCOCCBr)c(Cl)cc2-c2cc(=O)c(C(=O)O)cn21` [Example 41, (R)-3-(2-(2-Bromoethoxy)ethoxy)-2-chloro-7-isopropyl-11-oxo-6,7-dihydro-11H-benzo[f]pyrido[1,2-d][1,4]oxazepine-10-carboxylic acid]: the EC50 was found to be 0.1 µM.
To `CC(C)[C@@H]1COc2cc(OCCCNC(=O)OC(C)(C)C)c(Cl)cc2-c2cc(=O)c(C(=O)O)cn21` [Example 42, (R)-3-(3-((tert-Butoxycarbonyl)amino)propoxy)-2-chloro-7-isopropyl-11-oxo-6,7-dihydro-11H-benzo[f]pyrido[1,2-d][1,4]oxazepine-10-carboxylic acid] belongs 0.042 µM.
Take `COCCCOc1cc2c(cc1Cl)-c1cc(=O)c(C(=O)O)cn1[C@H](CCO)CO2` [Example 43, (R)-2-Chloro-7-(2-hydroxyethyl)-3-(3-methoxypropoxy)-11-oxo-6,7-dihydro-11H-benzo[f]pyrido[1,2-d][1,4]oxazepine-10-carboxylic acid]: the EC50 was 0.35 µM.
For `CC(C)COc1cc2c(cc1C1CC1)-c1cc(=O)c(C(=O)O)cn1[C@H](C(C)C)CO2` [Example 44, (R)-2-Cyclopropyl-3-isobutoxy-7-isopropyl-11-oxo-6,7-dihydro-11H-benzo[f]pyrido[1,2-d][1,4]oxazepine-10-carboxylic acid], the EC50 was determined as 0.006 µM.
For `COCCCOc1cc2c(cc1C1CC1)-c1cc(=O)c(C(=O)O)cn1[C@H](C(C)C)CO2` [Example 45, (R)-2-Cyclopropyl-7-isopropyl-3-(3-methoxypropoxy)-11-oxo-6,7-dihydro-11H-benzo[f]pyrido[1,2-d][1,4]oxazepine-10-carboxylic acid], the EC50 was 0.006 µM.
`COCCCOc1cc2c(cc1C)-c1cc(=O)c(C(=O)O)cn1[C@H](C(C)C)CO2` [Example 46, (R)-7-Isopropyl-3-(3-methoxypropoxy)-2-methyl-11-oxo-6,7-dihydro-11H-benzo[f]pyrido[1,2-d][1,4]oxazepine-10-carboxylic acid]: the EC50 is 0.039 µM.
In the case of `CCc1cc2c(cc1OCCCOC)OC[C@@H](C(C)C)n1cc(C(=O)O)c(=O)cc1-2` [Example 47, (R)-2-Ethyl-7-isopropyl-3-(3-methoxypropoxy)-11-oxo-6,7-dihydro-11H-benzo[f]pyrido[1,2-d][1,4]oxazepine-10-carboxylic acid], the EC50 was 0.006 µM.
As to `C=Cc1cc2c(cc1OCCCOC)OC[C@@H](C(C)C)n1cc(C(=O)O)c(=O)cc1-2` [Example 48, (R)-7-Isopropyl-3-(3-methoxypropoxy)-11-oxo-2-vinyl-6,7-dihydro-11H-benzo[f]pyrido[1,2-d][1,4]oxazepine-10-carboxylic acid], the EC50 was 0.004 µM.
Consider `Cc1cc2c(cc1OCC1CC1)OC[C@@H](C(C)C)n1cc(C(=O)O)c(=O)cc1-2` [Example 49, (R)-3-(Cyclopropylmethoxy)-7-isopropyl-2-methyl-11-oxo-6,7-dihydro-11H-benzo[f]pyrido[1,2-d][1,4]oxazepine-10-carboxylic acid], for which the EC50 worked out at 0.049 µM.
For the compound `CCc1cc2c(cc1OCC1CC1)OC[C@@H](C(C)C)n1cc(C(=O)O)c(=O)cc1-2` [Example 50, (R)-3-(Cyclopropylmethoxy)-2-ethyl-7-isopropyl-11-oxo-6,7-dihydro-11H-benzo[f]pyrido[1,2-d][1,4]oxazepine-10-carboxylic acid], the EC50 turned out to be 0.011 µM.
`Cc1cc2c(cc1OCC(C)C)OC[C@@H](C(C)C)n1cc(C(=O)O)c(=O)cc1-2` [Example 51, (R)-3-Isobutoxy-7-isopropyl-2-methyl-11-oxo-6,7-dihydro-11H-benzo[f]pyrido[1,2-d][1,4]oxazepine-10-carboxylic acid]: the EC50 was 0.015 µM.
For the compound `CCc1cc2c(cc1OCC(C)C)OC[C@@H](C(C)C)n1cc(C(=O)O)c(=O)cc1-2` [Example 52, (R)-2-Ethyl-3-isobutoxy-7-isopropyl-11-oxo-6,7-dihydro-11H-benzo[f]pyrido[1,2-d][1,4]oxazepine-10-carboxylic acid], the EC50 is 0.007 µM.
